Data on 14 compounds can be found in US20230000840A1, “THERAPEUTIC AGENTS AND PROPHYLACTIC AGENTS FOR FUNCTIONAL GASTROINTESTINAL DISORDERS AND XEROSTOMIA” (NIPPON SHINYAKU CO., LTD., priority 2019, published 2023).

The subject of one assay is ileum. The assay is described as follows: Magnus test: carbachol-induced contraction of isolated rat ileum. The conditions noted are these: test compound 10 μM, then carbachol 50 nM, 100% = carbachol 1000 nM, 0% = DMSO + carbachol 50 nM, average ± standard error, read-out: Enhancement ratio P of the contraction force. How it is done: 9- to 15-week-aged SD female rats (Japan SLC, Inc.) were exsanguinated to death by amputation of carotid artery under isoflurane anesthesia. Then, the ileum was removed from each rat, and cut to a length of 2 cm while excising the mesentery and connective tissue, to prepare an intestinal sample. In a Magnus tank, this sample was immersed and suspended in 20 mL of a Krebs solution at 37° C. (118 mM NaCl, 4.7 mM KCl, 2.5 mM CaCl2, 1.2 mM MgSO4, 1.2 mM KH2PO4, 11 mM D-glucose, 20 mM NaHCO3) aerated with a mixed gas of 95% O2 and 5% CO2. Then, a load of 1 g was applied to the sample to stabilize the tension.
One end of the sample was connected to an isotonic transducer (IT-10, Medical Agent), and tension (contraction force) data was imported to a personal computer via Power Lab (registered trademark) (A&D Instruments Limited). Carbachol (Carbamylcholine Chloride, Cat. No. 036-09841, manufactured by FUJIFILM Wako Pure Chemical Industries, Ltd.) was added to the Krebs solution in the Magnus tank such that the final concentration thereof was 1000 nM, and contraction of the sample was checked. A contraction force Tb of the sample at this time was defined as 100%. Then, the Magnus tank was washed with a Krebs solution three times to wash away carbachol, and the Magnus tank was finally filled with 20 mL of a Krebs solution.
Next, dimethyl sulfoxide (DMSO, Cat. No. 13445-74, manufactured by NACALAI TESQUE, INC.) was added to the Krebs solution in the Magnus tank, then carbachol was added to the Krebs solution in the Magnus tank such that the final concentration thereof was 50 nM, and contraction of the sample was checked. A contraction force Ta of the sample at this time was defined as 0%. Then, the Magnus tank was washed with a Krebs solution three times to wash away carbachol and DMSO, and the Magnus tank was finally filled with 20 mL of a Krebs solution. Next, a test compound dissolved in DMSO was added to the Krebs solution in the Magnus tank such that the final concentration thereof was 10 μM, then carbachol was added to the Krebs solution in the Magnus tank such that the final concentration thereof was 50 nM, and contraction of the sample was checked.
As described above, the contraction force Tb of the sample when carbachol was added at a final concentration of 1000 nM was defined as 100%, and the contraction force Ta of the sample when carbachol was added at a final concentration of 50 nM under the condition that DMSO was added first instead of the test compound was defined as 0%. The contraction force of the sample when carbachol was added at a final concentration of 50 nM under the condition that the test compound was added first at a final concentration of 10 μM was denoted by Tc, and an enhancement ratio P (unit: %) of the contraction force by the test compound was calculated according to the following equation (2). The increase in contraction force by the test compound was evaluated on the basis of the enhancement ratio P. The number of cases in each addition group was 3 to 7.
P=100×(Tc−Ta)/(Tb−Ta) (2)

The next assay concerns anesthetized mice. The assay is described as follows: Measurement of secreted saliva amount in anesthetized mice. Format: in vivo, mouse. The settings on record: for Amount of saliva secreted: urethane-anesthetized male ICR mice, 10 mg/kg intravenous, cotton balls weighed after 30 minutes, average ± standard error. How it is done: 8-week-aged male ICR mice (Japan SLC, Inc.) were anesthetized with urethane (1650 mg/kg, intraperitoneal administration). After about 1 hour, a test compound or a vehicle (physiological saline containing 10% DMSO (OTSUKA NORMAL SALINE, manufactured by Otsuka Pharmaceutical Factory, Inc.)) was intravenously administered at 10 mg/kg, and immediately after that, one or two absorbent cotton wool balls ([…]) (Roller Cotton (cotton ball) SS, manufactured by Nichiei Co., Ltd.) were inserted into the mouth. The difference between the weight of the absorbent cotton balls after 30 minutes from insertion and the weight of the absorbent cotton balls before insertion was defined as an amount of saliva secreted. At this time, the test compound was dissolved in DMSO and then diluted 10-fold with physiological saline. The administration volumes of the test compound and the vehicle were each set to 5 mL/kg. The experiment was carried out in three parts. The number of cases in each administration group was 3-4.

Structures are written as SMILES.

Regarding `CCOc1cc(-c2cc(N(C)CC(C)(C)COC)c3[nH]c(-c4cnc(N5CCC(C(=O)O)CC5)cn4)nc3n2)cc(C(F)(F)F)n1` [Example 7, 1-(5-{5-[2-Ethoxy-6-(trifluoromethyl)pyridin-4-yl]-7-[(3-methoxy-2,2-dimethylpropyl)(methyl)amino]-1H-imidazo[4,5-b]pyridin-2-yl}pyrazin-2-yl)piperidine-4-carboxylic acid], the activation at 10 µM with ileum is 25.8 ± 6.38%. In addition, the “Amount of saliva secreted” value in the assay with anesthetized mice amounted to 73.40 ± 28.54 mg.
Regarding `COCC1(CN(C)c2cc(-c3cc(C4CC4)nc(C(F)(F)F)c3)nc3nc(-c4cnc(N5CCN(CCC(=O)[O-])C[C@H]5C)cn4)[nH]c23)CCCCC1.[Na+]` [Example 14, Sodium 3-[(3R)-4-(5-{5-[2-cyclopropyl-6-(trifluoromethyl)pyridin-4-yl]-7-[{[1-(methoxymethyl)cyclohexyl]methyl}(methyl)amino]-1H-imidazo[4,5-b]pyridin-2-yl}pyrazin-2-yl)-3-methylpiperazin-1-yl]propanoate], in the assay with ileum, the activation at 10 µM was determined as 65.1 ± 15%. Also, the “Amount of saliva secreted” value in the assay on anesthetized mice stood at 142.70 ± 23.51 mg.
On to `CCOc1ncc(-c2cc(N(C)CC3(COC)CCCC3)c3[nH]c(-c4ccc(N5CCC(C(=O)O)CC5)cc4F)nc3n2)cc1C(F)(F)F` [Example 6, 1-(4-{5-[6-Ethoxy-5-(trifluoromethyl)pyridin-3-yl]-7-[{[1-(methoxymethyl)cyclopentyl]methyl}(methyl)amino]-1H-imidazo[4,5-b]pyridin-2-yl}-3-fluorophenyl)piperidine-4-carboxylic acid], for which the activation at 10 µM with ileum was 26.7 ± 5.04%. Moreover, the “Amount of saliva secreted” value in the assay on anesthetized mice came to 11.37 ± 2.87 mg.
The matching figures for `COCC1(CN(C)c2cc(-c3cc(F)cc(C(F)(F)F)c3)nc3nc(-c4cnc(N5CCC(F)(C(=O)O)CC5)cn4)[nH]c23)CCC1` [Example 2, 4-Fluoro-1-(5-{5-[3-fluoro-5-(trifluoromethyl)phenyl]-7-[{[1-(methoxymethyl)cyclobutyl]methyl}(methyl)amino]-1H-imidazo[4,5-b]pyridin-2-yl}pyrazin-2-yl)piperidine-4-carboxylic acid]: 61.5 ± 8% and 9.73 ± 3.61 mg.
For `CCOCC1(CN(C)c2cc(-c3cnc(C4CC4)c(C(F)(F)F)c3)nc3nc(-c4cnc(N5CCN(CCC(=O)[O-])C[C@H]5C)cn4)[nH]c23)CCCC1.[Na+]` [Example 13, sodium 3-[(3R)-4-(5-{5-[6-cyclopropyl-5-(trifluoromethyl)pyridin-3-yl]-7-[{[1-(ethoxymethyl)cyclopentyl]methyl}(methyl)amino]-1H-imidazo [4,5-b]pyridin-2-yl}pyrazin-2-yl)-3-methylpiperazin-1-yl]propanoate], in the assay with ileum, the activation at 10 µM is 17.7 ± 12.7%. For the same compound, the “Amount of saliva secreted” value with anesthetized mice came to 214.40 ± 51.06 mg.
The matching figures for `CCOc1cc(-c2cc(N(C)CC3(COC)CCCC3)c3[nH]c(-c4cnc(N5CCC(C(=O)O)CC5)cn4)nc3n2)cc(C(F)(F)F)n1` [Example 9, 1-(5-{5-[2-Ethoxy-6-(trifluoromethyl)pyridin-4-yl]-7-[{[1-(methoxymethyl)cyclopentyl]methyl}(methyl)amino]-1H-imidazo[4,5-b]pyridin-2-yl}pyrazin-2-yl)piperidine-4-carboxylic acid]: 36.9 ± 6.43% and 34.73 ± 11.39 mg.
For the compound `CCOCC1(CN(C)c2cc(-c3cnc(C4CC4)c(C(F)(F)F)c3)nc3nc(-c4cnc(N5CCC(C(=O)O)CC5)cn4)[nH]c23)CCCC1` [Example 8, 1-(5-{5-[6-Cyclopropyl-5-(trifluoromethyl)pyridin-3-yl]-7-[{[1-(ethoxymethyl)cyclopentyl]methyl}(methyl)amino]-1H-imidazo[4,5-b]pyridin-2-yl}pyrazin-2-yl)piperidine-4-carboxylic acid], the activation at 10 µM in the assay with ileum amounted to 12.4 ± 5.31%. Besides, the “Amount of saliva secreted” value with anesthetized mice was found to be 49.13 ± 11.95 mg.
The matching figures for `COC[C@@H]1CN(c2cnc(-c3nc4nc(-c5cnc(C6CC6)c(C(F)(F)F)c5)cc(N(C)CC5(COC)CCCCC5)c4[nH]3)cn2)CCN1CCC(=O)O` [Example 12, 3-[(2S)-4-(5-{5-[6-Cyclopropyl-5-(trifluoromethyl)pyridin-3-yl]-7-[{[1-(methoxymethyl)cyclohexyl]methyl}(methyl)amino]-1H-imidazo[4,5-b]pyridin-2-yl}pyrazin-2-yl)-2-(methoxymethyl)piperazin-1-yl]propanoic acid]: 49.3 ± 11% and 131.75 ± 28.63 mg.
For `COCC1(CN(C)c2cc(-c3cnc(C4CC4)c(C(F)(F)F)c3)nc3nc(-c4cnc(N5CCN(CCC(=O)[O-])C[C@H]5C)cn4)[nH]c23)CCCC1.[Na+]` [Example 15, Sodium 3-[(3R)-4-(5-{5-[6-cyclopropyl-5-(trifluoromethyl)pyridin-3-yl]-7-[{[1-(methoxymethyl)cyclopentyl]methyl}(methyl)amino]-1H-imidazo[4,5-b]pyridin-2-yl}pyrazin-2-yl)-3-methylpiperazin-1-yl]propanoate], in that order: 79.3 ± 12.2% and 304.98 ± 58.25 mg.
As to `COCC1(CN(C)c2cc(-c3cnc(C4CC4)c(C(F)(F)F)c3)nc3nc(-c4ccc(OC5CCN(CC(=O)O)CC5)cc4F)[nH]c23)CCCC1` [Example 11, [4-(4-{5-[6-Cyclopropyl-5-(trifluoromethyl)pyridin-3-yl]-7-[{[1-(methoxymethyl)cyclopentyl]methyl}(methyl)amino]-1H-imidazo[4,5-b]pyridin-2-yl}-3-fluorophenoxy)piperidin-1-yl]acetic acid], the activation at 10 µM with ileum was 30.1 ± 3.79%. Moreover, in the assay with anesthetized mice, the “Amount of saliva secreted” value is 51.85 ± 7.37 mg.
For `COCC1(CN(C)c2cc(-c3cc(F)cc(C(F)(F)F)c3)nc3nc(-c4cnc(N5CCN(CC(=O)O)CC5)cn4)[nH]c23)CCC1` [Example 1, [4-(5-{5-[3-Fluoro-5-(trifluoromethyl)phenyl]-7-[{[1-(methoxymethyl)cyclobutyl]methyl}(methyl)amino]-1H-imidazo[4,5-b]pyridin-2-yl}pyrazin-2-yl)piperazin-1-yl]acetic acid], in that order: 30.4 ± 8.34% and 9.63 ± 2.90 mg.
Regarding `CCOc1cc(-c2cc(N(C)CC3(COC)CCC3)c3[nH]c(-c4cnc(N5CCC(C(=O)O)CC5)cn4)nc3n2)cc(C(F)(F)F)n1.Cl.Cl` [Example 4, 1-(5-{5-[2-Ethoxy-6-(trifluoromethyl)pyridin-4-yl]-7-[{[1-(methoxymethyl)cyclobutyl]methyl}(methyl)amino]-1H-imidazo[4,5-b]pyridin-2-yl}pyrazin-2-yl)piperidine-4-carboxylic acid dihydrochloride], the activation at 10 µM in the assay on ileum worked out at 59.3 ± 7.17%. Besides, in the assay with anesthetized mice, the “Amount of saliva secreted” value was determined as 77.35 ± 16.66 mg.
For `CCOc1ncc(-c2cc(N(C)CC3(COC)CCC3)c3[nH]c(-c4cnc(N5CCC(C(=O)O)CC5)cn4)nc3n2)cc1C(F)(F)F` [Example 3, 1-(5-{5-[6-Ethoxy-5-(trifluoromethyl)pyridin-3-yl]-7-[{[1-(methoxymethyl)cyclobutyl]methyl}(methyl)amino]-1H-imidazo[4,5-b]pyridin-2-yl}pyrazin-2-yl)piperidine-4-carboxylic acid], in that order: 57.3 ± 7.24% and 27.23 ± 5.94 mg.
As for `CC[C@@H]1C(=O)OC[C@@H]1Cc1cncn1C` [pilocarpine, reference compound], in the assay on anesthetized mice (urethane-anesthetized mice, dose not given), the Salivation promoting effect result is “exhibited a salivation promoting effect”.
